pIC50: −log10 of the molar value.
Key:
[1] = biological target: T1, Rat M4 (Rattus norvegicus, UniProt P08485); assay: mAChR M4 cell-based functional assay (calcium flux, rat M4/Gqi5/CHO cells); settings: for remaining activity at 30 µM: CHO, % ACh maximum at 30 μM, read-out: Emin (%) rat M4; for pIC50: antagonist mode, decrease of the response to an EC80 concentration of acetylcholine, CHO-K1 cells with Gqi5
T1 construct: expressed in transfected cells; host or cells: CHO-K1 (ATCC), co-transfected with chimeric G protein Gqi5
T1 sequence (P08485 1-478): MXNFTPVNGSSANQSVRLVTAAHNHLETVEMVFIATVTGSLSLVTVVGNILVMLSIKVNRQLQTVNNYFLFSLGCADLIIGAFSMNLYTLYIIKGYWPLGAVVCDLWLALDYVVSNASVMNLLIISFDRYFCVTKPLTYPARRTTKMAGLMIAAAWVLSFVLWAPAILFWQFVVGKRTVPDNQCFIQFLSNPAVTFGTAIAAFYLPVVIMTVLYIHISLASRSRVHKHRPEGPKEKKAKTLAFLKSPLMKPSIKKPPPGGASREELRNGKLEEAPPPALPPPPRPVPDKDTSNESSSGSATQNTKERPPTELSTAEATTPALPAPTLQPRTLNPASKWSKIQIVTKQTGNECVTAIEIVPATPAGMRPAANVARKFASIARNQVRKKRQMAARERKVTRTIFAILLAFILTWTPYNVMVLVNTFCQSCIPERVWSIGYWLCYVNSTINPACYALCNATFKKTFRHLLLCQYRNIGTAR
Description: (§1) Human or rat M4 cDNA, along with the chimeric G protein Gqi5, were transfected into Chinese hamster ovary (CHO-K1) cells purchased from the American Type Culture Collection using Lipofectamine2000. M4/Gqi5/CHO cells were grown in Ham's F-12 medium containing 10% heat-inactivated fetal bovine serum (FBS), 20 mM HEPES, 500 μg/mL G418 sulfate, and 200 μg/mL Hygromycin B.
(§2) For high throughput measurement of agonist-evoked increases in intracellular calcium, CHO-K1 cells stably expressing muscarinic receptors were plated in growth medium lacking G418 and hygromycin at 15,000 cells/20 μL/well in Greiner 384-well black-walled, tissue culture (TC)-treated, clear-bottom plates (VWR). Cells were incubated overnight at 37° C. and 5% CO2. The next day, cells were washed using an ELX 405 (BioTek) with assay buffer; the final volume was then aspirated to 20 μL. Next, 20 μL of a 2.3 μM stock of Fluo-4/acetoxymethyl ester (Invitrogen, Carlsbad, Calif.), prepared as a 2.3 mM stock in DMSO and mixed in a 1:1 ratio with 10% (w/v) Pluronic F-127 and diluted in assay buffer, was added to the wells and the cell plates were incubated for 50 min at 37° C. and 5% CO2. Dye was removed by washing with the ELX 405 and the final volume was aspirated to 20 μL. Compound master plates were formatted in a 10 point concentration-response curve (CRC) format (1:3 dilutions) in 100% DMSO with a starting concentration of 10 or 1 mM using a BRAVO liquid handler (Agilent). Test compound CRCs were then transferred to daughter plates (240 nL) using the Echo acoustic plate reformatter (Labcyte, Sunnyvale, Calif.) and then diluted into assay buffer (40 μL) to a 2× stock using a Thermo Fisher Combi (Thermo Fisher Scientific, Waltham, Mass.).
(§3) Calcium flux was measured using the Functional Drug Screening System (FDSS) 6000 or 7000 (Hamamatsu Corporation, Tokyo, Japan) as an increase in the fluorescent static ratio. Compounds were applied to cells (20 μL, 2×) using the automated system of the FDSS at 2 seconds into the protocol and the data were collected at 1 Hz. At 143 s, 10 μL of an EC20 concentration of the muscarinic receptor agonist acetylcholine was added (5×), followed by the addition of 12 μL of an EC80 concentration of acetylcholine at the 268 s time point (5×). Agonist activity was analyzed as a concentration-dependent increase in calcium mobilization upon compound addition. Positive allosteric modulator activity was analyzed as a concentration-dependent increase in the EC20 acetylcholine response. Antagonist activity was analyzed as a concentration-dependent decrease in the EC80 acetylcholine response for the purposes of the tables herein, an IC50 (inhibitory concentration 50) was calculated as a concentration-dependent decrease of the response elicited by an EC80 concentration of acetylcholine, Concentration-response curves were generated using a four-parameter logistical equation in XLFit curve fitting software (IDBS, Bridgewater, N.J.) for Excel (Microsoft, Redmond, Wash.) or Prism (GraphPad Software, Inc., San Diego, Calif.) or the Dotmatics software platform (Dotmatics, Bishop's Stortford, UK).
(§4) Compounds were synthesized as described above. Activity (IC50 and Emin) was determined in the mAChR M4 cell-based functional assay as described above and the data are shown in Table 2. The compound number corresponds to the compound numbers used in Examples 1-3.

[2] = biological target: T2, Human M4 (Homo sapiens, UniProt P08173); assay: mAChR M4 cell-based functional assay (calcium flux, human M4/Gqi5/CHO cells); settings: for remaining activity at 30 µM: CHO, % ACh maximum at 30 μM, read-out: Emin (%) human M4; for pIC50: antagonist mode, decrease of the response to an EC80 concentration of acetylcholine, CHO-K1 cells with Gqi5
T2 construct: expressed in transfected cells; host or cells: CHO-K1 (ATCC), co-transfected with chimeric G protein Gqi5
T2 sequence (P08173 1-479): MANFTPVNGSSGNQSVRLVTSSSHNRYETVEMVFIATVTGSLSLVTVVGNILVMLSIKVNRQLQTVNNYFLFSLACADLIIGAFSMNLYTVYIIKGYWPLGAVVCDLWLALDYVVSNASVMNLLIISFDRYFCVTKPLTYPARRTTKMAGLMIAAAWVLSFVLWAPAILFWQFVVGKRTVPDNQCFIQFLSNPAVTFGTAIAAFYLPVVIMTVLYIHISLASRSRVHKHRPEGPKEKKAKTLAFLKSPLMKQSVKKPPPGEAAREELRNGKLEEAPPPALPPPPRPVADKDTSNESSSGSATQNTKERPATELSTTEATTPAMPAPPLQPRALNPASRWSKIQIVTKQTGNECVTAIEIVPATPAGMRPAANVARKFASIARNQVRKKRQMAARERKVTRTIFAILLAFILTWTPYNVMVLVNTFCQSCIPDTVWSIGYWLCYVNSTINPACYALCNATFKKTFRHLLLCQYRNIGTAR
Description: as §1, §2, §3, §4

Row | SMILES | remaining activity at 30 µM [1] | pIC50 [1] | remaining activity at 30 µM [2] | pIC50 [2]
1 | Cc1cnn(C)c1-c1ccc(N2CCC3CN(CC45CC6CC(CC(C6)C4)C5)CC32)nn1 (stereo not shown) [Compound 1, 5-(Adamantan-1-ylmethyl)-1-(6-(1,4-dimethyl-1H-pyrazol-5-y)pyridazin-3-yl)octahydropyrrolo[3,4-b]pyrrole] | 4.61% | 6.29 | – | –
2 | Cc1cnn(C)c1-c1ccc(N2CCC3CN(CCCC(C)(C)C)CC32)nn1 (stereo not shown) [Compound 2, 1-(6-(1,4-Dimethyl-1H-pyrazol-5-yl)pyridazin-3-yl)-5-(4,4-dimethylpentyl)octahydropyrrolo[3,4-b]pyrrole] | 6.85% | 5.82 | 3.83% | 6.19
3 | Cc1cnn(C)c1-c1ccc(N2CCC3CN(CC4CC5C=CC4C5)CC32)nn1 (stereo not shown) [Compound 3, 5-(bicyclo[2.2.1]hept-5-en-2-ylmethyl)-1-(6-(1,4-dimethyl-1H-pyrazol-5-yl)pyridazin-3-yl)octahydropyrrolo[3,4-b]pyrrole] | 16.8% | 5.45 | 4.28% | 6.10
4 | Cc1cccnc1CN1CC2CCN(c3ccc(-c4c(C)cnn4C)nn3)C2C1 (stereo not shown) [Compound 4, 1-(6-(1,4-dimethyl-1H-pyrazol-5-yl)pyridazin-3-yl)-5-((3-methylpyridin-2-yl)methyl)octahydropyrrolo[3,4-b]pyrrole] | 63.1% | < 5.00 | 26.2% | < 5.00
5 | Cc1cnn(C)c1-c1ccc(N2CCC3CN(Cc4ccccc4)CC32)nn1 (stereo not shown) [Compound 5, 5-benzyl-1-(6-(1,4-dimethyl-1H-pyrazol-5-yl)pyridazin-3-yl)octahydropyrrolo[3,4-b]pyrrole] | – | – | 46.7% | < 5.00
6 | Cc1cnn(C)c1-c1ccc(N2CCC3CN(CCc4ccccc4)CC32)nn1 (stereo not shown) [Compound 6, 1-(6-(1,4-ditnethyl-1H-pyrazol-5-yl)pyridazin-3-yl)-5-phenethyloctahydropyrrolo[3,4-b]pyrrole] | 30.9% | < 5.00 | 7.19% | 5.70
7 | Cc1cnn(C)c1-c1ccc(N2CCC3CN(CCCc4ccccc4)CC32)nn1 (stereo not shown) [Compound 7, 1-(6-(1,4-dimethyl-1H-pyrazol-5-yl)pyridazin-3-yl)-5-(3-phenylpropyl)octahydropyrrolo[3,4-b]pyrrole] | 26.2% | < 5.00 | 6.12% | 5.84
8 | Cc1cnn(C)c1-c1ccc(N2CCC3CN(CC4CCN(Cc5ccccc5)CC4)CC32)nn1 (stereo not shown) [Compound 8, 5-((1-benzylpiperidin-4-yl)methyl)-1-(6-(1,4-dimethyl-1H-pyrazol-5-yl)pyridazin-3-yl)octahydropyrrolo[3,4-b]pyrrole] | 32.4% | < 5.00 | 6.61% | 5.47
9 | Cc1cnn(C)c1-c1ccc(N2CCC3CN(CCC(C)c4ccccc4)CC32)nn1 (stereo not shown) [Compound 9, 1-(6-(1,4-dimethyl-1H-pyrazol-5-yl)pyridazin-3-yl)-5-(3-phenylbutyl)octahydropyrrolo[3,4-b]pyrrole] | 6.32% | 5.63 | 4.33% | 6.30
10 | Cc1cnn(C)c1-c1ccc(N2CCC3CN(CC4C5CC6CC(C5)CC4C6)CC32)nn1 (stereo not shown) [Compound 10, 5-(adamantan-2-ylmethyl)-1-(6-(1,4-dimethyl-1H-pyrazol-5-yl)pyridazin-3-yl)octahydropyrrolo[3,4-b]pyrrole] | 4.82% | 5.72 | 4.12% | 6.34
11 | Cc1cnn(C)c1-c1ccc(N2CCC3CN(CC(C)c4ccccc4)CC32)nn1 (stereo not shown) [Compound 11, 1-(6-(1,4-dimethyl-1H-pyrazol-5-yl)pyridazin-3-yl)-5-(2-phenylpropyl)octahydropyrrolo[3,4-b]pyrrole] | 55.5% | < 5.00 | 15.1% | < 5.00
12 | CC/C=C\CCCN1CC2CCN(c3ccc(-c4c(C)cnn4C)nn3)C2C1 (stereo not shown) [Compound 12, (Z)-1-(6-(1,4-dimethyl-1H-pyrazol-5-yl)pyridazin-3-yl)-5-(hept-4-en-1-yl)octahydropyrrolo[3,4-b]pyrrole] | 45.2% | < 5.00 | 15.1% | < 5.00
13 | CCCCCCN1CC2CCN(c3ccc(-c4c(C)cnn4C)nn3)C2C1 (stereo not shown) [Compound 13, 1-(6-(1,4-dimethyl-1H-pyrazol-5-yl)pyridazin-3-yl)-5-hexyloctahydropyrrolo[3,4-b]pyrrole] | 28.4% | < 5.00 | 7.23% | 5.67
14 | Cc1cnn(C)c1-c1ccc(N2CCC3CN(CC(c4ccccc4)c4ccccc4)CC32)nn1 (stereo not shown) [Compound 14, 1-(6-(1,4-dimethyl-1H-pyrazol-5-yl)pyridazin-3-yl)-5-(2,2-diphenylethyl)octahydropyrrolo[3,4-b]pyrrole] | 48.3% | < 5.00 | 8.96% | 5.04
15 | CCc1ccncc1-c1ccc(N2CCC3CN(CC45CC6CC(CC(C6)C4)C5)CC32)nn1 (stereo not shown) [Compound 15, 5-(adamantan-1-ylmethyl)-1-(6-(4-ethylpyridin-3-yl)pyridazin-3-yl)octahydropyrrolo[3,4-b]pyrrole] | 3.98% | 5.77 | 4.18% | 6.05
16 | Cc1nn(C)cc1-c1ccc(N2CCC3CN(CC45CC6CC(CC(C6)C4)C5)CC32)nn1 (stereo not shown) [Compound 16, 5-(adamantan-1-ylmethyl)-1-(6-(1,3-dimethyl-1H-pyrazol-4-yl)pyridazin-3-yl)octahydropyrrolo[3,4-b]pyrrole] | 4.09% | 6.12 | 4.02% | 6.72
17 | Fc1ccc(Cl)c(-c2ccc(N3CCC4CN(CC56CC7CC(CC(C7)C5)C6)CC43)nn2)c1 (stereo not shown) [Compound 17, 5-(adamantan-1-ylmethyl)-1-(6-(2-chloro-5-fluorophenyl)pyridazin-3-yl)octahydropyrrolo[3,4-b]pyrrole] | 49.1% | < 5.00 | 20.2% | < 5.00

— patent publication US11225484B2, “Substituted octahydropyrrolo[3,4-b]pyrroles as antagonists of the muscarinic acetylcholine receptor M4” (Vanderbilt University, priority 2017, dated 2022)
